Test results: patent publication US8815872B2, “Macrocyclics pyrimidines as aurora kinase inhibitors” (Merck Patent GmbH, priority 2008, dated 2014)

Tests used:
[1] = from C=CCOc1cccc(Nc2ncc(F)c(N[C@H]3[C@@H](C(N)=O)[C@@H]4C=C[C@H]3C4)n2)c1; rcm bond; Grubbs 2nd generation; dichloromethane; 19.2 mM; 40.0 °C; 3.0 h
SAPK2-alpha = biological target: T1, SAPK2-alpha (Homo sapiens, UniProt Q16539); assay: Other kinases, inhibition at 1 μM (Table 3); format: biochemical
T1 construct: purchased Caliper Life Sciences
Procedure: (§1) The Aurora and other kinase assays described here were performed on two Caliper Life Sciences systems, the LC3000 and the Desktop Profiler. These provide data on enzyme activity via measurement of the relative amounts of phosphorylated or unphosphorylated fluorescently labelled substrate peptide at the end of an enzymatic reaction. These different states of peptide are resolved by applying a potential difference across the sample. The presence of a charged phosphate group on the product (as opposed to the substrate) causes a different peptide mobility between the two peptides. This is visualized by excitation of a fluorescent label on the substrate and product peptides and represented as peaks within the analysis software.
(§2) The Desktop Profiler utilizes the same principal as the LC 3000 for calculating percentage conversion of a substrate to product. Caliper Life Sciences provided proprietary flash frozen pre-made 384 well plates containing selected kinases. Each column in the 384 well plate contained a particular selected kinase. A second plate, the ‘substrate plate’ contained a mix of fluorescently labeled peptide substrate and ATP. These were arranged in columns so that transfer for substrate plate to enzyme plate provided the correct enzyme with the correct substrate/ATP concentration.
(§3) Compounds were added to a thawed enzyme plate in the desired format, in single concentrations. Reactions were initiated by transfer of the ubstrate/ATP mix from the substrate plate. The enzyme plate was incubated for 90 mins at 25 °C. The reaction was stopped by addition of […] of Stop Buffer (100 mM HEPES pH 7.5, 0.015% Brij-35, 10 mM EDTA (Sigma, E7889)).
(§4) Plates were read in a manner identical to that of the LC3000, and the ratio between substrate and product peaks provided the activity of the enzyme in that well. This was best represented by a plate heat map which colors each well by percent inhibition as compared to positive and negative controls (no inhibitors and no ATP respectively).

PKA = biological target: T2, PKA (Homo sapiens, UniProt P17612); assay: Other kinases, inhibition at 1 μM (Table 3); format: biochemical
T2 construct: purchased Caliper Life Sciences
Procedure: as §1, §2, §3, §4

PRAK = biological target: T3, PRAK (Homo sapiens, UniProt Q8IW41); assay: Other kinases, inhibition at 1 μM (Table 3); format: biochemical
T3 construct: purchased Caliper Life Sciences
Procedure: as §1, §2, §3, §4

DYRK1-alpha = biological target: T4, DYRK1-alpha (Homo sapiens, UniProt Q13627); assay: Other kinases, inhibition at 1 μM (Table 3); format: biochemical
T4 construct: purchased Caliper Life Sciences
Procedure: as §1, §2, §3, §4

FGFR1 = biological target: T5, FGFR1 (Homo sapiens, UniProt P11362); assay: Other kinases, inhibition at 1 μM (Table 3); format: biochemical
T5 construct: purchased Caliper Life Sciences
Procedure: as §1, §2, §3, §4

MELK = biological target: T6, MELK (Homo sapiens, UniProt Q14680); assay: Other kinases, inhibition at 1 μM (Table 3); format: biochemical
T6 construct: purchased Caliper Life Sciences
Procedure: as §1, §2, §3, §4

CK2 = assay: Other kinases, inhibition at 1 μM (Table 3); format: biochemical
Procedure: as §1, §2, §3, §4

IR = biological target: T7, IR (Homo sapiens, UniProt P06213); assay: Other kinases, inhibition at 1 μM (Table 3); format: biochemical
T7 construct: purchased Caliper Life Sciences
Procedure: as §1, §2, §3, §4

MST4 = biological target: T8, MST4 (Homo sapiens, UniProt Q9P289); assay: Other kinases, inhibition at 1 μM (Table 3); format: biochemical
T8 construct: purchased Caliper Life Sciences
Procedure: as §1, §2, §3, §4

CSK = biological target: T9, CSK (Homo sapiens, UniProt P41240); assay: Other kinases, inhibition at 1 μM (Table 3); format: biochemical
T9 construct: purchased Caliper Life Sciences
Procedure: as §1, §2, §3, §4

NEK6 = biological target: T10, NEK6 (Homo sapiens, UniProt Q9HC98); assay: Other kinases, inhibition at 1 μM (Table 3); format: biochemical
T10 construct: purchased Caliper Life Sciences
Procedure: as §1, §2, §3, §4

Pyk2(h) = biological target: T11, Pyk2(h) (Homo sapiens, UniProt Q14289); assay: Inhibition of other kinases IC50 (Table 2); format: biochemical
T11 construct: purchased Caliper Life Sciences
In short: (§5)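 Kinase activity was measured by microfluidic mobility-shift separation of phosphorylated and unphosphorylated fluorescently labelled substrate peptide at the end of the enzymatic reaction. Product and substrate were resolved by their charge difference and detected by fluorescence.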

FAK(h) = biological target: T12, FAK(h) (Homo sapiens, UniProt Q05397); assay: Inhibition of other kinases IC50 (Table 2); format: biochemical
T12 construct: purchased Caliper Life Sciences
In short: as §5

CDK2/cyclinA(h) = biological target: T13, CDK2/cyclinA(h) (Homo sapiens, UniProt P24941); assay: Other kinases, single-concentration inhibition (Table 3); format: biochemical; conditions: 1 μM
T13 construct: purchased Caliper Life Sciences
In short: (§6)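 Caliper mobility-shift kinase assay with labelled peptide and ATP at kinase-specific levels. 90 min, 25 °C, single compound dose.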

Lyn(h) = biological target: T14, Lyn(h) (Homo sapiens, UniProt P07948); assay: as above; format: biochemical; conditions: 1 μM
T14 construct: purchased Caliper Life Sciences
In short: as §6

CHK2(h) = biological target: T15, CHK2(h) (Homo sapiens, UniProt O96017); assay: as above; format: biochemical; conditions: 1 μM
T15 construct: purchased Caliper Life Sciences
In short: as §6

Plk1(h) = biological target: T16, Plk1(h) (Homo sapiens, UniProt P53350); assay: as above; format: biochemical; conditions: 1 μM
T16 construct: purchased Caliper Life Sciences
In short: as §6

DDR2(h) = biological target: T17, DDR2(h) (Homo sapiens, UniProt Q16832); assay: as above; format: biochemical; conditions: 1 μM
T17 construct: purchased Caliper Life Sciences
In short: as §6

FGFR1(h) = biological target: T18, FGFR1(h) (Homo sapiens, UniProt P11362); assay: as above; format: biochemical; conditions: 1 μM
T18 construct: purchased Caliper Life Sciences
In short: as §6

cSRC(h) = biological target: T19, cSRC(h) (Homo sapiens, UniProt P12931); assay: as above; format: biochemical; conditions: 1 μM
T19 construct: purchased Caliper Life Sciences
In short: as §6

Fms(h) = biological target: T20, Fms(h) (Homo sapiens, UniProt P07333); assay: as above; format: biochemical; conditions: 1 μM
T20 construct: purchased Caliper Life Sciences
In short: as §6

c-RAF(h) = biological target: T21, c-RAF(h) (Homo sapiens, UniProt P04049); assay: as above; format: biochemical; conditions: 1 μM
T21 construct: purchased Caliper Life Sciences
In short: as §6

SIK(h) = biological target: T22, SIK(h) (Homo sapiens, UniProt P57059); assay: as above; format: biochemical; conditions: 1 μM
T22 construct: purchased Caliper Life Sciences
In short: as §6

Plk3(h) = biological target: T23, Plk3(h) (Homo sapiens, UniProt Q9H4B4); assay: as above; format: biochemical; conditions: 1 μM
T23 construct: purchased Caliper Life Sciences
In short: as §6

PDGFRα(h) = biological target: T24, PDGFRα(h) (Homo sapiens, UniProt P16234); assay: as above; format: biochemical; conditions: 1 μM
T24 construct: purchased Caliper Life Sciences
In short: as §6

p70S6K(h) = biological target: T25, p70S6K(h) (Homo sapiens, UniProt P23443); assay: as above; format: biochemical; conditions: 1 μM
T25 construct: purchased Caliper Life Sciences
In short: as §6

Flt4(h) = biological target: T26, Flt4(h) (Homo sapiens, UniProt P35916); assay: as above; format: biochemical; conditions: 1 μM
T26 construct: purchased Caliper Life Sciences
In short: as §6

CHK1(h) = biological target: T27, CHK1(h) (Homo sapiens, UniProt O14757); assay: as above; format: biochemical; conditions: 1 μM
T27 construct: purchased Caliper Life Sciences
In short: as §6

Yes(h) = biological target: T28, Yes(h) (Homo sapiens, UniProt P07947); assay: as above; format: biochemical; conditions: 1 μM
T28 construct: purchased Caliper Life Sciences
In short: as §6

Abl(T315I)(h) = biological target: T29, Abl(T315I)(h) (Homo sapiens, UniProt P00519, T315I); assay: Inhibition of other kinases IC50 (Table 2); format: biochemical
T29 construct: purchased Caliper Life Sciences
In short: as §5

T9 sequence (P41240 whole entry, species assumed): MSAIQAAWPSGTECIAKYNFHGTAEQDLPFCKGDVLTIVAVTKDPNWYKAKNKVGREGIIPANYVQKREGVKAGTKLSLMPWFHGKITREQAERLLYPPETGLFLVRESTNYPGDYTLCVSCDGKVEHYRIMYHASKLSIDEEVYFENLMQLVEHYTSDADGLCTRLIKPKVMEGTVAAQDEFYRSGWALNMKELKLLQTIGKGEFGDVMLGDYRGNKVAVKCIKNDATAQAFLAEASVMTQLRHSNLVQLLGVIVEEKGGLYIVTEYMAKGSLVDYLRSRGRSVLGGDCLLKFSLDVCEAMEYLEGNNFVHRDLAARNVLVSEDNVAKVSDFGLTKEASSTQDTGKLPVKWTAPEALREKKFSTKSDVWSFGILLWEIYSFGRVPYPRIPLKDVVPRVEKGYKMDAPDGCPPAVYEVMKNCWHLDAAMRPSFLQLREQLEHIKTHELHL
T7 sequence (P06213 28-1382): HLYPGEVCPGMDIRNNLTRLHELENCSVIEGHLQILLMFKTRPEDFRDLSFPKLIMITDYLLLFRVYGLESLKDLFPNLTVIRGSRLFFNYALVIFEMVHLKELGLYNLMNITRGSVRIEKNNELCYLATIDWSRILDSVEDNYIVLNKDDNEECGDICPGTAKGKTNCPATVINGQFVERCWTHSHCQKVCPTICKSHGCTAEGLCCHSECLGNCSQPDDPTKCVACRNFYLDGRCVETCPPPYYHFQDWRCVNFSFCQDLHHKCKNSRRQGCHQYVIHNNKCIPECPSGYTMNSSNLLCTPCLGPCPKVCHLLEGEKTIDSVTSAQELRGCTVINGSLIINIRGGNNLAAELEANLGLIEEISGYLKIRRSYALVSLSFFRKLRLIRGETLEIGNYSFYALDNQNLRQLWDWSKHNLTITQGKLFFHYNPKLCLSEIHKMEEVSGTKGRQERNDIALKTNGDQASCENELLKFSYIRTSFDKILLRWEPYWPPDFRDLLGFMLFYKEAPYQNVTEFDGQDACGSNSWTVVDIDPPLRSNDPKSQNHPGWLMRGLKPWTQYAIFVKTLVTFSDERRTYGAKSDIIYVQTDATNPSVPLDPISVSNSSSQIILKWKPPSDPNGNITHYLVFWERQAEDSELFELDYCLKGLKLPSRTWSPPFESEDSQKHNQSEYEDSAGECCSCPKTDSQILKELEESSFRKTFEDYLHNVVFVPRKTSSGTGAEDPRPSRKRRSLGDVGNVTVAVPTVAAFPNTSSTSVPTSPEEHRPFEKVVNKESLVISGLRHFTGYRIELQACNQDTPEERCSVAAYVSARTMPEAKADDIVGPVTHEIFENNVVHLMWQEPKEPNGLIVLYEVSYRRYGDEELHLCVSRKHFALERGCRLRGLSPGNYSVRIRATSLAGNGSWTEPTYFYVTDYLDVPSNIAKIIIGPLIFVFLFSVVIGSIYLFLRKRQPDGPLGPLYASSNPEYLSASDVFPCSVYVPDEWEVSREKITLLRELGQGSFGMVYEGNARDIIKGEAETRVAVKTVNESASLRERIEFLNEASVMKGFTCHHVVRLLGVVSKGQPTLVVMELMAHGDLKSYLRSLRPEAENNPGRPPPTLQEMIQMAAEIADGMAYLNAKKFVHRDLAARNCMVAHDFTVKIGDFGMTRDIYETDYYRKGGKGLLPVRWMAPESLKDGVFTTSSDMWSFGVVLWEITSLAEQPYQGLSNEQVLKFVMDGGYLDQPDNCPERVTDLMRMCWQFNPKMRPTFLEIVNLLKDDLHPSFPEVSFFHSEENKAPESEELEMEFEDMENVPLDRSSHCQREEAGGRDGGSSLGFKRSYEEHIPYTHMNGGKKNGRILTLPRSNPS
T6 sequence (Q14680 whole entry, species assumed): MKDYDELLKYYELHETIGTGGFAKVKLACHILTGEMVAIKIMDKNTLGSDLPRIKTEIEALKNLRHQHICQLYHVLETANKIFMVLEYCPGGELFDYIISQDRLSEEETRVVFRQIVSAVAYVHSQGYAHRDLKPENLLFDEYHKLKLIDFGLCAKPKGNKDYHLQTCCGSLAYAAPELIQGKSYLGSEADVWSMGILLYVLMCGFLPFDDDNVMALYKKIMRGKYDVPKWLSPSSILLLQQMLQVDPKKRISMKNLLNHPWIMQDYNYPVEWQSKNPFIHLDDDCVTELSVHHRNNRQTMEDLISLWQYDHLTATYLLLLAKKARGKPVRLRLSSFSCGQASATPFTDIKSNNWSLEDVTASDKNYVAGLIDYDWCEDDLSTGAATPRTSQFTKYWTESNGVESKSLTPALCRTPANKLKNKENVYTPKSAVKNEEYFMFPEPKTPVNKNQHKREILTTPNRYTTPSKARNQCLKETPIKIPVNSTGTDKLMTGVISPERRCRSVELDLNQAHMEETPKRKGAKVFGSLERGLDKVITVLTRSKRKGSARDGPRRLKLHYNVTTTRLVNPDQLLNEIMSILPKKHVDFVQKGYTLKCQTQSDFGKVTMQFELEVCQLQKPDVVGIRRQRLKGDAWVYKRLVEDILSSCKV
T8 sequence (Q9P289 whole entry, species assumed): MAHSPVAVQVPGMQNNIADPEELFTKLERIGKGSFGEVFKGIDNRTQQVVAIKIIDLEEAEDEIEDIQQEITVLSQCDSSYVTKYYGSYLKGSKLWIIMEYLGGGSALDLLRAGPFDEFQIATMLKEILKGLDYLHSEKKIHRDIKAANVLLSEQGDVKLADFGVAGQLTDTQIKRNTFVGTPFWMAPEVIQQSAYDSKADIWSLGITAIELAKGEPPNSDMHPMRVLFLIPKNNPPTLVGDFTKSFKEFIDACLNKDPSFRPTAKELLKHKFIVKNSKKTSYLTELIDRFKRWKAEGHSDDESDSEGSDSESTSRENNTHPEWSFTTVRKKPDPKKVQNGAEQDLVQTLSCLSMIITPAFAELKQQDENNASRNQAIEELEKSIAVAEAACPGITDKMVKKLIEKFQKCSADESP
T5 sequence (P11362 22-822, species assumed): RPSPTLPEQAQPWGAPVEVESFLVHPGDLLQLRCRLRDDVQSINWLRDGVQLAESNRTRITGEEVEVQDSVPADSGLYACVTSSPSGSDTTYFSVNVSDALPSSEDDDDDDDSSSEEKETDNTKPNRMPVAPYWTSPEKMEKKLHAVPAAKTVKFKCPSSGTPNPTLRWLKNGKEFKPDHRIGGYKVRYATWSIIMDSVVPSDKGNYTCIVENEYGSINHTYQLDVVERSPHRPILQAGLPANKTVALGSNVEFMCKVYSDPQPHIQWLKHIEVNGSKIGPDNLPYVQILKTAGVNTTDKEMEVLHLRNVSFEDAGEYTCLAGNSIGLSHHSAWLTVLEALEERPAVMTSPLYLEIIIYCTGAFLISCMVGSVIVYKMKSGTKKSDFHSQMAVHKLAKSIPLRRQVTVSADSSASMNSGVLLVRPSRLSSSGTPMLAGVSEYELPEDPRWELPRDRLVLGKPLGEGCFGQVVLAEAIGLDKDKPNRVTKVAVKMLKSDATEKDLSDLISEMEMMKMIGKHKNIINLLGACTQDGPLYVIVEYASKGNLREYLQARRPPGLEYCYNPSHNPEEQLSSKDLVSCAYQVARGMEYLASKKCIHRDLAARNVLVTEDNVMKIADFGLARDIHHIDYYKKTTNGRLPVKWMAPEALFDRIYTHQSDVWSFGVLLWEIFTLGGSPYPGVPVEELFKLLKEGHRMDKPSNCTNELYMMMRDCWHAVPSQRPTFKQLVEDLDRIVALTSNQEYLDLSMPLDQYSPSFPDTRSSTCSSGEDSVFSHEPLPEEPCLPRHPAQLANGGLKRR
T3 sequence (Q8IW41 whole entry, species assumed): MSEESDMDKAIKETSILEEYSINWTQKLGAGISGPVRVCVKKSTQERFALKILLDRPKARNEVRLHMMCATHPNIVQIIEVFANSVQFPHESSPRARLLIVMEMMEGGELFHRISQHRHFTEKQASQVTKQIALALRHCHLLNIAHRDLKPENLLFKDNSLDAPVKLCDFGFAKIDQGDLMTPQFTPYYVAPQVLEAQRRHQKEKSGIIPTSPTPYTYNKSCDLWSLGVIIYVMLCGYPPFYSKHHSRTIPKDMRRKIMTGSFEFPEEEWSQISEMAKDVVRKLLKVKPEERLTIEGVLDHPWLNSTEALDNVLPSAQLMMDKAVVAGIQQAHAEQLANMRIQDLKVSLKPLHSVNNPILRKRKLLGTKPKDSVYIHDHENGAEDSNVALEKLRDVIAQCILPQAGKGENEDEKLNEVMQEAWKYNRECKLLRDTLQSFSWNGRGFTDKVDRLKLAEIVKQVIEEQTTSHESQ
T1 sequence (Q16539 whole entry): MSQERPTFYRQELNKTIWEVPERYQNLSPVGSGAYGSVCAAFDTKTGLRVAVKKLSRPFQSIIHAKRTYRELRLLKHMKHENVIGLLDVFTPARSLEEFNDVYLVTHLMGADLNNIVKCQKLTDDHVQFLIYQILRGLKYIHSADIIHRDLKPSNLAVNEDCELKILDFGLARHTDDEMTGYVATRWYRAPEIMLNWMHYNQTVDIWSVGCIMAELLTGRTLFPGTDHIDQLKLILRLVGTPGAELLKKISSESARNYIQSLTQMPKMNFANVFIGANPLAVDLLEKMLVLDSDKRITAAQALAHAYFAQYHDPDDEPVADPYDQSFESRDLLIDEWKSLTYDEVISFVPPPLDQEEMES
T15 sequence (O96017 whole entry): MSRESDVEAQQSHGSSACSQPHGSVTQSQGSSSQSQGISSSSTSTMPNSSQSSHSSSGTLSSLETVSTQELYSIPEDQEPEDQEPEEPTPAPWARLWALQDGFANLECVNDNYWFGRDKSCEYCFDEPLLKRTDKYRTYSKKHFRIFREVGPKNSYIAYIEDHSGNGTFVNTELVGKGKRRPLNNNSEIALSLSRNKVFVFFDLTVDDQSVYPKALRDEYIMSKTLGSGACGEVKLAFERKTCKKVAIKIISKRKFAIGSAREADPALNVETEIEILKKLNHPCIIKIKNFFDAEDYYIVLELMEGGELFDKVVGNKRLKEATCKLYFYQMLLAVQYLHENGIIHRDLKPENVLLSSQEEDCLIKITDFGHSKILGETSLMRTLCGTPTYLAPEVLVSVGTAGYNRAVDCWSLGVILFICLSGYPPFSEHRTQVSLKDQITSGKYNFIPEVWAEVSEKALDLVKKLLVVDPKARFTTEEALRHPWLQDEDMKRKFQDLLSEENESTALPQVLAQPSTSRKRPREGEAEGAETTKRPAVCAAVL

SMILES: C=C[C@@H]1C[C@@H]2/C=C/COc3cccc(c3)Nc3ncc(F)c(n3)N[C@H]2[C@H]1C(N)=O (single isomer, unassigned) [Example 3]
- ring closure, yield of all isomers [1]: 15%

SMILES: Fc1cnc2nc1NC1CCCC(C1)OC/C=C\COc1cccc(c1)N2 (single isomer, unassigned) [Example 33, (16Z)-6-fluoro-14,19-dioxa-2,4,8,26-tetraazatetracyclo[18.3.1.1˜3,7˜0.1˜9,13˜]hexacosa-1(24),3(26),4,6,16,20,22-heptaene]
- inhibition at 1 µM (SAPK2-alpha): 76%
- % inhibition PKA (PKA): 82%
- % inhibition PRAK (PRAK): 80%
- inhibition at 1 µM (DYRK1-alpha): 86%
- inhibition at 1 µM (FGFR1): 74%
- % inhibition MELK (MELK): 101%
- % inhibition CK2 (CK2): 96%
- inhibition at 1 µM (IR): 67%
- % inhibition MST4 (MST4): 89%
- inhibition at 1 µM (CSK): 86%

SMILES: NC(=O)[C@H]1[C@H]2C[C@H]3[C@H]1Nc1nc(ncc1F)Nc1cccc(c1)CSS[C@@H]3C2 [Example 10]
- inhibition at 1 µM (SAPK2-alpha): 89%
- % inhibition PKA (PKA): 72%
- % inhibition PRAK (PRAK): 84%
- inhibition at 1 µM (DYRK1-alpha): 83%
- inhibition at 1 µM (FGFR1): 10%
- % inhibition MELK (MELK): 36%
- % inhibition CK2 (CK2): 91%
- inhibition at 1 µM (IR): 37%
- % inhibition NEK6 (NEK6): 93%
- % inhibition MST4 (MST4): 59%
- inhibition at 1 µM (CSK): 56%

SMILES: NC(=O)[C@H]1[C@H]2C[C@H]3[C@H]1Nc1nc(ncc1F)Nc1cccc(c1)OCCS[C@@H]3C2 [Example 20]
- IC50 (Pyk2(h)): 101 to 1000 nM
- IC50 (FAK(h)): 101 to 1000 nM

SMILES: CN1CCN(c2ccc3cc2OCCS[C@@H]2C[C@@H]4C[C@H]2[C@@H](Nc2nc(ncc2F)N3)[C@H]4C(N)=O)CC1 [Example 22]
- % inhibition CDK2/cyclinA(h) (CDK2/cyclinA(h)): 96%
- % inhibition Lyn(h) (Lyn(h)): 12%
- % inhibition CHK2(h) (CHK2(h)): 64%
- % inhibition Plk1(h) (Plk1(h)): 87%
- % inhibition DDR2(h) (DDR2(h)): 96%
- % inhibition FGFR1(h) (FGFR1(h)): 5%
- % inhibition cSRC(h) (cSRC(h)): 16%
- % inhibition Fms(h) (Fms(h)): 82%
- % inhibition c-RAF(h) (c-RAF(h)): 107%
- % inhibition SIK(h) (SIK(h)): 25%
- % inhibition Plk3(h) (Plk3(h)): 104%
- % inhibition PDGFRα(h) (PDGFRα(h)): 87%
- % inhibition p70S6K(h) (p70S6K(h)): 83%
- % inhibition Flt4(h) (Flt4(h)): 11%
- % inhibition CHK1(h) (CHK1(h)): 101%
- % inhibition Yes(h) (Yes(h)): 2%

SMILES: NC(=O)[C@H]1[C@H]2C[C@H]3[C@H]1Nc1nc(ncc1F)Nc1cccc(c1)NC(=O)CS[C@@H]3C2 [Example 27]
- IC50 (Abl(T315I)(h)): 1 to 100 nM
